# Article PMC5218480 (PLoS ONE, 2017)
# Tested on: MV-4-11 cells
# Test: Gene expression microarray analysis (Affymetrix PrimeView) and GSEA
# Format: cell-based, human
# Design: RFU PODN (11730768_x_at) / Fold change /veh PODN (11730768_x_at) / RFU LINC00158 (11744669_a_at) / Fold change /veh LINC00158 (11744669_a_at) / RFU DUSP10 (11751237_a_at) / Fold change /veh DUSP10 (11751237_a_at) / RFU ID3 (11757404_x_at) / Fold change /veh ID3 (11757404_x_at) / RFU PLEKHG5 (11737974_s_at) / Fold change /veh PLEKHG5 (11737974_s_at) / RFU LRRC4B (11730491_at) / Fold change /veh LRRC4B (11730491_at) / RFU GIMAP4 (11747438_a_at) / Fold change /veh GIMAP4 (11747438_a_at) / RFU KRT8 (11758183_x_at) / Fold change /veh KRT8 (11758183_x_at) / RFU CNN1 (11734310_a_at) / Fold change /veh CNN1 (11734310_a_at) / RFU VPS37D (11726825_at) / Fold change /veh VPS37D (11726825_at) / RFU C10orf10 (11716522_x_at) / Fold change /veh C10orf10 (11716522_x_at) / RFU KIR2DL2 /// KIR2DL4 /// KIR2DL5A /// KIR2DL5B /// KIR2DS1 /// KIR2DS2 /// KIR2DS3 /// KIR2DS4 /// KIR3DL3 /// KIR3DL3 /// KIR3DS1 (11738374_at) / Fold change /veh KIR2DL2 /// KIR2DL4 /// KIR2DL5A /// KIR2DL5B /// KIR2DS1 /// KIR2DS2 /// KIR2DS3 /// KIR2DS4 /// KIR3DL3 /// KIR3DL3 /// KIR3DS1 (11738374_at) / RFU C1QL1 (11718748_at) / Fold change /veh C1QL1 (11718748_at) / RFU TMPRSS4 (11747572_a_at) / Fold change /veh TMPRSS4 (11747572_a_at) / RFU HAMP (11756126_x_at) / Fold change /veh HAMP (11756126_x_at) / RFU RNFT2 (11725882_a_at) / Fold change /veh RNFT2 (11725882_a_at) / RFU NR4A2 (11747474_a_at) / Fold change /veh NR4A2 (11747474_a_at) / RFU ABCC12 (11746883_a_at) / Fold change /veh ABCC12 (11746883_a_at) / RFU TMEM136 (11760407_x_at) / Fold change /veh TMEM136 (11760407_x_at) / RFU CLDN22 /// WWC2 (11732394_at) / Fold change /veh CLDN22 /// WWC2 (11732394_at) / RFU HLA-DPB1 (11760878_x_at) / Fold change /veh HLA-DPB1 (11760878_x_at) / RFU SPINT1 (11716480_a_at) / Fold change /veh SPINT1 (11716480_a_at) / RFU GAP43 (11754022_s_at) / Fold change /veh GAP43 (11754022_s_at) / RFU A4GNT (11735810_at) / Fold change /veh A4GNT (11735810_at) / RFU PRB3 (11715151_x_at) / Fold change /veh PRB3 (11715151_x_at) / RFU TUBB4B (11761932_at) / Fold change /veh TUBB4B (11761932_at) / RFU CAPN14 (11732068_a_at) / Fold change /veh CAPN14 (11732068_a_at) / RFU TMCC2 (11721928_a_at) / Fold change /veh TMCC2 (11721928_a_at) / RFU IRGQ (11745062_a_at) / Fold change /veh IRGQ (11745062_a_at) / RFU FAM174B (11720279_a_at) / Fold change /veh FAM174B (11720279_a_at) / RFU TMPRSS4 (11748680_a_at) / Fold change /veh TMPRSS4 (11748680_a_at) / RFU FAM212B (11763350_a_at) / Fold change /veh FAM212B (11763350_a_at) / RFU PLEKHG5 (11743358_a_at) / Fold change /veh PLEKHG5 (11743358_a_at) / RFU ZSCAN30 (11745921_a_at) / Fold change /veh ZSCAN30 (11745921_a_at) / RFU CMKLR1 (11741424_a_at) / Fold change /veh CMKLR1 (11741424_a_at) / RFU LOC101060620 /// MAPK8IP1 (11723275_at) / Fold change /veh LOC101060620 /// MAPK8IP1 (11723275_at) / RFU SPTSSB (11747773_x_at) / Fold change /veh SPTSSB (11747773_x_at) / RFU PRSS12 (11739890_at) / Fold change /veh PRSS12 (11739890_at) / RFU BIN1 (11741810_x_at) / Fold change /veh BIN1 (11741810_x_at) / RFU WNT11 (11732464_a_at) / Fold change /veh WNT11 (11732464_a_at) / RFU C10orf10 (11716521_a_at) / Fold change /veh C10orf10 (11716521_a_at) / RFU C5orf56 (11738089_at) / Fold change /veh C5orf56 (11738089_at) / RFU CYB561 (11721691_x_at) / Fold change /veh CYB561 (11721691_x_at) / RFU ANKRD19P (11752326_a_at) / Fold change /veh ANKRD19P (11752326_a_at) / RFU OR2T12 /// OR2T33 /// OR2T8 (11738714_s_at) / Fold change /veh OR2T12 /// OR2T33 /// OR2T8 (11738714_s_at) / RFU VCAN (11748164_a_at) / Fold change /veh VCAN (11748164_a_at) / RFU JSRP1 (11732532_at) / Fold change /veh JSRP1 (11732532_at) / RFU KRTAP10-11 (11738290_x_at) / Fold change /veh KRTAP10-11 (11738290_x_at) / RFU MYO3A (11730013_a_at) / Fold change /veh MYO3A (11730013_a_at) / RFU EBF3 (11725865_a_at) / Fold change /veh EBF3 (11725865_a_at) / RFU CAMK2N1 (11719241_x_at) / Fold change /veh CAMK2N1 (11719241_x_at) / RFU C5orf56 (11738088_a_at) / Fold change /veh C5orf56 (11738088_a_at) / RFU OLFML3 (11715873_a_at) / Fold change /veh OLFML3 (11715873_a_at) / RFU LOC100653217 /// NTM (11731650_a_at) / Fold change /veh LOC100653217 /// NTM (11731650_a_at) / RFU MAPK11 (11762145_a_at) / Fold change /veh MAPK11 (11762145_a_at) / RFU FIZ1 (11724087_x_at) / Fold change /veh FIZ1 (11724087_x_at) / RFU OASL (11726364_x_at) / Fold change /veh OASL (11726364_x_at) / RFU SOX15 (11748057_x_at) / Fold change /veh SOX15 (11748057_x_at) / RFU CD79A (11719716_a_at) / Fold change /veh CD79A (11719716_a_at) / RFU HIST1H1D (11736915_at) / Fold change /veh HIST1H1D (11736915_at) / RFU CASKIN2 (11723855_a_at) / Fold change /veh CASKIN2 (11723855_a_at) / RFU LOC730098 (11760151_x_at) / Fold change /veh LOC730098 (11760151_x_at) / RFU OR4N2 (11742367_at) / Fold change /veh OR4N2 (11742367_at) / RFU PRRT2 (11749266_a_at) / Fold change /veh PRRT2 (11749266_a_at) / RFU SNX32 (11753110_a_at) / Fold change /veh SNX32 (11753110_a_at) / RFU CDHR5 (11726645_a_at) / Fold change /veh CDHR5 (11726645_a_at) / RFU RCAN1 (11760418_a_at) / Fold change /veh RCAN1 (11760418_a_at) / RFU FAM167A (11723789_a_at) / Fold change /veh FAM167A (11723789_a_at) / RFU FAM26E (11764081_at) / Fold change /veh FAM26E (11764081_at) / RFU ISYNA1 (11749810_s_at) / Fold change /veh ISYNA1 (11749810_s_at) / RFU ACY1 (11761880_at) / Fold change /veh ACY1 (11761880_at) / RFU 11764098_at / Fold change /veh 11764098_at / RFU SAMD14 (11745864_x_at) / Fold change /veh SAMD14 (11745864_x_at) / RFU NPB (11741838_a_at) / Fold change /veh NPB (11741838_a_at) / RFU TMPRSS6 (11731388_a_at) / Fold change /veh TMPRSS6 (11731388_a_at) / RFU KRTAP10-2 (11738614_at) / Fold change /veh KRTAP10-2 (11738614_at) / RFU ARHGAP8 /// PRR5-ARHGAP8 (11727945_x_at) / Fold change /veh ARHGAP8 /// PRR5-ARHGAP8 (11727945_x_at) / RFU KRTAP5-7 /// NADSYN1 (11734609_at) / Fold change /veh KRTAP5-7 /// NADSYN1 (11734609_at) / RFU RASL12 (11751679_a_at) / Fold change /veh RASL12 (11751679_a_at) / RFU CDKN2B (11736163_a_at) / Fold change /veh CDKN2B (11736163_a_at) / RFU PRF1 (11729649_at) / Fold change /veh PRF1 (11729649_at) / RFU, ZNF638 /// ZNF638-IT1 / Fold change vs veh, ZNF638 /// ZNF638-IT1 / RFU, PANK3 / Fold change vs veh, PANK3 / RFU, SH3YL1 / Fold change vs veh, SH3YL1 / RFU, ZEB2 / Fold change vs veh, ZEB2 / RFU, NRIP1 / Fold change vs veh, NRIP1 / RFU, PTTG1IP / Fold change vs veh, PTTG1IP / RFU, CAPN2 / Fold change vs veh, CAPN2 / RFU, MED14 / Fold change vs veh, MED14 / RFU, SNORA58 / Fold change vs veh, SNORA58 / RFU, C1orf63 / Fold change vs veh, C1orf63 / RFU, LRRFIP1 / Fold change vs veh, LRRFIP1 / RFU, NDUFAF7 / Fold change vs veh, NDUFAF7 / RFU, SLC12A2 / Fold change vs veh, SLC12A2 / RFU, IBTK / Fold change vs veh, IBTK / RFU, ESF1 / Fold change vs veh, ESF1 / Fold change vs veh, TMEM50B / RFU, TAOK1 / Fold change vs veh, TAOK1 / RFU, ACBD3 / Fold change vs veh, ACBD3 / RFU, TMA16 / Fold change vs veh, TMA16 / RFU, RWDD3 / Fold change vs veh, RWDD3 / RFU, BCAT1 / Fold change vs veh, BCAT1 / RFU, EDEM3 / Fold change vs veh, EDEM3 / RFU, TMEM33 / Fold change vs veh, TMEM33 / RFU, WDR75 / Fold change vs veh, WDR75 / RFU, AHCTF1 / Fold change vs veh, AHCTF1 / RFU, TFRC / Fold change vs veh, TFRC / RFU, ZDHHC17 / Fold change vs veh, ZDHHC17 / RFU, NOM1 / Fold change vs veh, NOM1 / RFU, ARL8B / Fold change vs veh, ARL8B / RFU, ZBTB11 / Fold change vs veh, ZBTB11 / RFU, TAMM41 / Fold change vs veh, TAMM41 / RFU, KIAA1704 /// LOC100996395 / Fold change vs veh, KIAA1704 /// LOC100996395 / RFU, ING1 / Fold change vs veh, ING1 / RFU, TRMT61B / Fold change vs veh, TRMT61B / RFU, FUBP3 / Fold change vs veh, FUBP3 / RFU, TP53 / Fold change vs veh, TP53 / RFU, TNKS2 / Fold change vs veh, TNKS2 / RFU, ZFP14 / Fold change vs veh, ZFP14 / RFU, ACTR2 / Fold change vs veh, ACTR2 / RFU, PPP3R1 / Fold change vs veh, PPP3R1 / RFU, PIK3R1 / Fold change vs veh, PIK3R1 / RFU, HNRNPA1 / Fold change vs veh, HNRNPA1 / RFU, RNF170 / Fold change vs veh, RNF170 / RFU, ZNF28 / Fold change vs veh, ZNF28 / RFU, RNGTT / Fold change vs veh, RNGTT / RFU, OGT / Fold change vs veh, OGT / RFU, BRD1 / Fold change vs veh, BRD1 / RFU, MARS / Fold change vs veh, MARS / RFU, ZNF655 / Fold change vs veh, ZNF655 / RFU, FAHD1 / Fold change vs veh, FAHD1 / RFU, BDP1 / Fold change vs veh, BDP1 / RFU, LRRCC1 / Fold change vs veh, LRRCC1 / RFU, ARID1A / Fold change vs veh, ARID1A / RFU, ZNF146 / Fold change vs veh, ZNF146 / RFU, ZNF330 / Fold change vs veh, ZNF330 / RFU, GPN3 / Fold change vs veh, GPN3 / RFU, C9orf123 / Fold change vs veh, C9orf123 / RFU, N4BP2L2 / Fold change vs veh, N4BP2L2 / RFU, ARFIP1 / Fold change vs veh, ARFIP1 / RFU, FAM179B / Fold change vs veh, FAM179B / RFU, BCL10 / Fold change vs veh, BCL10 / RFU, UHRF1BP1L / Fold change vs veh, UHRF1BP1L / RFU, BET1 / Fold change vs veh, BET1 / RFU, CNOT2 / Fold change vs veh, CNOT2 / RFU, ZNF268 / Fold change vs veh, ZNF268 / Fold change vs veh, ZNF507 / RFU, DGCR2 / Fold change vs veh, DGCR2 / RFU, WDSUB1 / Fold change vs veh, WDSUB1 / Fold change vs veh, HSP90B1 /// MIR3652 / RFU, ADSS / Fold change vs veh, ADSS / RFU, GK / Fold change vs veh, GK / RFU, ZNF148 / Fold change vs veh, ZNF148 / RFU, TAF9 / Fold change vs veh, TAF9 / RFU, SLC1A5 / Fold change vs veh, SLC1A5 / RFU, SLMO2 / Fold change vs veh, SLMO2 / RFU, ABCC4 / Fold change vs veh, ABCC4 / RFU, LOC101060439 /// RAP1B / Fold change vs veh, LOC101060439 /// RAP1B / RFU, RFX7 / Fold change vs veh, RFX7 / RFU, GTPBP10 / Fold change vs veh, GTPBP10 / RFU, CNEP1R1 / Fold change vs veh, CNEP1R1 / RFU, BIVM-ERCC5 /// ERCC5 / Fold change vs veh, BIVM-ERCC5 /// ERCC5 / RFU, ILF3 / Fold change vs veh, ILF3 / RFU 11762660_at / Fold change /veh 11762660_at / RFU VCAN (11757783_s_at) / Fold change /veh VCAN (11757783_s_at) / RFU DDX43 (11728927_at) / Fold change /veh DDX43 (11728927_at) / RFU KRT8 (11758188_x_at) / Fold change /veh KRT8 (11758188_x_at) / RFU NKD1 (11759106_at) / Fold change /veh NKD1 (11759106_at) / RFU SRD5A1 (11742802_a_at) / Fold change /veh SRD5A1 (11742802_a_at) / RFU TPSAB1 /// TPSB2 (11721975_s_at) / Fold change /veh TPSAB1 /// TPSB2 (11721975_s_at) / RFU GSTM3 (11746129_a_at) / Fold change /veh GSTM3 (11746129_a_at) / RFU IL23R (11737362_x_at) / Fold change /veh IL23R (11737362_x_at) / RFU TMEM51 (11727254_a_at) / Fold change /veh TMEM51 (11727254_a_at) / RFU PIWIL2 (11732686_x_at) / Fold change /veh PIWIL2 (11732686_x_at) / RFU ORM1 (11744905_x_at) / Fold change /veh ORM1 (11744905_x_at) / RFU CCDC152 (11743942_at) / Fold change /veh CCDC152 (11743942_at) / RFU ECM1 (11717891_a_at) / Fold change /veh ECM1 (11717891_a_at) / RFU IL23R (11748794_a_at) / Fold change /veh IL23R (11748794_a_at) / RFU TNFAIP8L3 (11732012_x_at) / Fold change /veh TNFAIP8L3 (11732012_x_at) / RFU MBOAT4 (11741988_at) / Fold change /veh MBOAT4 (11741988_at) / RFU 11764193_at / Fold change /veh 11764193_at / RFU TMEM53 (11763286_at) / Fold change /veh TMEM53 (11763286_at) / RFU MAGEB2 (11727129_at) / Fold change /veh MAGEB2 (11727129_at) / RFU TMEM200A (11744735_a_at) / Fold change /veh TMEM200A (11744735_a_at) / RFU CCDC152 (11751479_a_at) / Fold change /veh CCDC152 (11751479_a_at) / RFU FAM211A (11726209_a_at) / Fold change /veh FAM211A (11726209_a_at) / RFU RGS16 (11746705_a_at) / Fold change /veh RGS16 (11746705_a_at) / RFU VCAN (11755009_s_at) / Fold change /veh VCAN (11755009_s_at) / RFU RHOB (11743442_s_at) / Fold change /veh RHOB (11743442_s_at) / RFU RGS16 (11720943_a_at) / Fold change /veh RGS16 (11720943_a_at) / RFU RGS16 (11720944_at) / Fold change /veh RGS16 (11720944_at) / RFU, VPS4B / Fold change vs veh, VPS4B / RFU, CREB1 / Fold change vs veh, CREB1 / RFU, DNAJC13 / Fold change vs veh, DNAJC13 / RFU, GNAQ / Fold change vs veh, GNAQ / RFU, CDK5R1 / Fold change vs veh, CDK5R1 / RFU, ZRANB3 / Fold change vs veh, ZRANB3 / RFU, CUL4A / Fold change vs veh, CUL4A / RFU, CCNY / Fold change vs veh, CCNY / RFU, UFL1 / Fold change vs veh, UFL1 / RFU, COG3 / Fold change vs veh, COG3 / RFU, DIAPH2 / Fold change vs veh, DIAPH2 / RFU, SKA2 / Fold change vs veh, SKA2 / RFU, AFF3 / Fold change vs veh, AFF3 / RFU, LMF1 / Fold change vs veh, LMF1 / RFU, IPO11 / Fold change vs veh, IPO11 / RFU, DFFB / Fold change vs veh, DFFB / RFU, FOXP1 / Fold change vs veh, FOXP1 / RFU, CARD8 / Fold change vs veh, CARD8 / RFU, STRN3 / Fold change vs veh, STRN3 / RFU, ADK / Fold change vs veh, ADK / RFU, RASSF2 / Fold change vs veh, RASSF2 / RFU, WIPF1 / Fold change vs veh, WIPF1 / RFU, LARP1B / Fold change vs veh, LARP1B / RFU, RASA1 / Fold change vs veh, RASA1 / RFU, RB1 / Fold change vs veh, RB1 / RFU, PPFIA1 / Fold change vs veh, PPFIA1 / RFU, MAT2A / Fold change vs veh, MAT2A / RFU, CCT5 / Fold change vs veh, CCT5 / RFU, WDR92 / Fold change vs veh, WDR92 / RFU, CUX1 / Fold change vs veh, CUX1 / RFU, TTC7A / Fold change vs veh, TTC7A / RFU, TMEM135 / Fold change vs veh, TMEM135 / RFU, DEPTOR / Fold change vs veh, DEPTOR / RFU, CPM / Fold change vs veh, CPM / RFU, DNAJB6 / Fold change vs veh, DNAJB6 / RFU, CACNA2D3 / Fold change vs veh, CACNA2D3 / RFU, DTX4 / Fold change vs veh, DTX4 / RFU, TFCP2 / Fold change vs veh, TFCP2 / RFU, GMCL1 /// GMCL1P1 / Fold change vs veh, GMCL1 /// GMCL1P1 / RFU, AEBP2 / Fold change vs veh, AEBP2 / RFU, SNHG1 /// SNORD22 /// SNORD25 /// SNORD26 /// SNORD27 /// SNORD28 /// SNORD29 /// SNORD31 / Fold change vs veh, SNHG1 /// SNORD22 /// SNORD25 /// SNORD26 /// SNORD27 /// SNORD28 /// SNORD29 /// SNORD31 / Fold change (Aza/veh), C12orf56 (ProbeSet 11735607_a_at) / Fold change (ACY-1035/veh), C12orf56 (ProbeSet 11735607_a_at) / Fold change (Aza/veh), FGFR1OP (ProbeSet 11751329_s_at) / Fold change (ACY-1035/veh), FGFR1OP (ProbeSet 11751329_s_at) / Fold change (Aza/veh), VPS36 (ProbeSet 11739960_a_at) / Fold change (ACY-1035/veh), VPS36 (ProbeSet 11739960_a_at) / RFU SYPL1 (11715823_x_at) / Fold change /veh SYPL1 (11715823_x_at) / RFU IGFBP7 (11715501_s_at) / Fold change /veh IGFBP7 (11715501_s_at) / RFU REEP3 (11722064_at) / Fold change /veh REEP3 (11722064_at) / RFU IGLL1 (11728026_x_at) / Fold change /veh IGLL1 (11728026_x_at): dose or concentration left out as unconfirmed
# Settings: MV-4-11 cells, 48 hours
smiles,measurement,value
Nc1ncn([C@@H]2O[C@H](CO)[C@@H](O)[C@H]2O)c(=O)n1 [azacitidine],RFU SYPL1 (11715823_x_at),860.69 RFU
